Results as given in patent US20100323972A1, “NON-IMMUNOSUPPRESSIVE CYCLOSPORIN FOR THE TREATMENT OF MUSCULAR DYSTROPHY” (priority 2008, published 2010).
“Also recorded” adds a separate entry of the source.

Experiments:
mouse model of Duchenne = details: inhibition of calcineurin; cited from earlier work
scgd−/− mice [1] = test: Hematoxylin- and eosin-stained histological sections of quadriceps; type: in vivo; details: 50 mg/kg/day subcutaneous
Description: FIG. 2(b) represents reduction of muscle pathology after administration of D-[MeAla]^3-[EtVal]^4-CsA in Scgd−/− mice observed in representative hematoxylin- and eosin-stained sections of quadriceps from wild type (Wt) mice and scgd−/− mice treated with D-[MeAla]^3-[EtVal]^4-CsA. Corresponding vehicle controls are also shown.
(§1) Different dissected muscles, gastrocnemius, quadriceps, tibialis anterior and heart muscles, were weighed and muscle weight (MW)-to-tibia length (TL) ratios (MW/TL) were determined. Results in FIG. 2(a) and FIG. 2(c) are presented as means±SEM (standard error of the means). A one-way ANOVA was used to compare means among 3 or more independent groups. A Newman-Keuls post hoc test was applied whenever multiple comparisons were conducted using InStat 3.0 (GraphPad software from Science Inc.). Values were considered significant when p<0.05.
Reduced pathology in the scgd−/− mice treated with D-[MeAla]^3-[EtVal]^4-CsA was also observed in histological slides of quadriceps (FIG. 2(b)).

scgd−/− mice [2] = test: Muscle weight-to-tibia length ratios (pseudo-hypertrophy) in treated scgd−/− mice; type: in vivo
Procedure: as §1
In response to the numerous degeneration/regeneration cycles, scgd—/− mice initially presented with hypertrophic skeletal muscles as are seen in subjects suffering from LGMD. […] Reduction of skeletal muscular hypertrophy was about 1.3 fold in gastrocnemius (Gastroc.), quadriceps (Quad.) and tibialis anterior (TA) and about 1.2 fold in heart muscle (Heart) of D-[MeAla]^3-[EtVal]^4-CsA-treated scgd−/− mice compared to vehicle-treated animals.

scgd−/− mice [3] = test: Quantitation of the distribution of fiber areas in skeletal muscles; type: in vivo; details: 50 mg/kg/day subcutaneous for 6 weeks; for Fiber area distribution / heterogeneity: 50 mg/kg/day
Description: (§2) FIG. 3(a) represents reduction of fiber area heterogeneity in muscle from scgd−/− mice after the administration of D-[MeAla]^3-[EtVal]^4-CsA as assessed by quantitation of the distribution of fiber areas in tibialis anterior (muscle). The study included wild type (Wt) mice treated with either vehicle (white bar) or D-[MeAla]^3-[EtVal]^4-CsA (black bar) and scgd−/− mice treated with either vehicle (gray bar or second to last bar in group) or D-[MeAla]^3-[EtVal]^4-CsA (dotted bar or last bar of group).
as §2, with “3(b)” for “3(a)”, “gastrocnemius. Included in the” for “tibialis anterior (muscle). The”, “were” for “included”
as §2, with “3(c)” for “3(a)”, “quadriceps muscle. Measurements were carried out on” for “tibialis anterior (muscle). The study included”
Scgd−/− mice were administered subcutaneously with either D-[MeAla]^3-[EtVal]^4-CsA at a dose of 50 mg/kg/day or vehicle for 6 weeks. […] The administration of the non-immunosuppressive D-[MeAla]^3-[EtVal]^4-CsA to scgd−/− mice reduced the regeneration rate of the fibers and normalized partially the distribution of small and large fibers.

scgd−/− mice [4] = test: Percentage fibrosis in muscles (hydroxyproline content / trichrome-stained sections); type: in vivo; details: trichrome-stained sections of diaphragm, tibialis anterior, gastrocnemius, quadriceps
Description: FIG. 2(c) represents reduction of muscle pathology after administration of D-[MeAla]^3-[EtVal]^4-CsA in scgd−/− mice as assessed by quantitation of fibrotic areas in trichrome-stained sections from diaphragm (Diaph.), tibialis anterior (TA), gastrocnemius (Gastroc.), quadriceps (Quad). Assessed were sections from wild type (Wt) mice treated with either vehicle (white bar) or D-[MeAla]^3-[EtVal]^4-CsA (black bar) and from scgd−/− mice treated with either vehicle (gray bar or second to last bar in group) or D-[MeAla]^3-[EtVal]^4-CsA (dotted bar or last bar of group).
Different dissected muscles, gastrocnemius, quadriceps, tibialis anterior and heart muscles, were weighed and muscle weight (MW)-to-tibia length (TL) ratios (MW/TL) were determined. Results in FIG. 2(a) and FIG. 2(c) are presented as means±SEM (standard error of the means). A one-way ANOVA was used to compare means among 3 or more independent groups. […]
Percentage fibrosis was assessed by means of a biochemical assay that quantified hydroxyproline content (Parsons et al., Am. J. Pathol., 2006, 168:1975-1985) in diaphragm (Diaph.), tibialis anterior (TA), gastrocnemius (Gastroc.) and quadriceps (Quad) muscles from wild type and scgd−/− mice treated or not treated with D-[MeAla]^3-[EtVal]^4-CsA.

| Substance | Effect on muscle pathology (mouse model of Duchenne) | Myofiber organization and fiber area distributions in histological slides (scgd−/− mice [1]) | Reduction of skeletal muscular hypertrophy (MW/TL) compared to vehicle-treated animals (scgd−/− mice [2]; gastrocnemius, 50 mg/kg/day subcutaneous, 4 to 10 weeks of age) | Effect on disease-associated increase in muscle weight (FIG. 2(a)) (scgd−/− mice [2]; gastrocnemius, quadriceps, tibialis anterior, heart) | Reduction of hypertrophy (MW/TL) compared to vehicle-treated animals (scgd−/− mice [2]; heart muscle, 50 mg/kg/day subcutaneous, 4 to 10 weeks of age) | Reduction of skeletal muscular hypertrophy (MW/TL) compared to vehicle-treated animals (scgd−/− mice [2]; quadriceps, 50 mg/kg/day subcutaneous, 4 to 10 weeks of age) | Reduction of skeletal muscular hypertrophy (MW/TL) compared to vehicle-treated animals (scgd−/− mice [2]; tibialis anterior, 50 mg/kg/day subcutaneous, 4 to 10 weeks of age) | Fiber area distribution / heterogeneity (scgd−/− mice [3]; gastrocnemius) | Fiber area distribution / heterogeneity (scgd−/− mice [3]; quadriceps) | Population of small fibers compared to vehicle-treated scgd−/− mice (scgd−/− mice [3]; three skeletal muscles) | Fiber area distribution / heterogeneity (scgd−/− mice [3]; tibialis anterior) | Effect on fibrotic areas (FIG. 2(c)) (scgd−/− mice [4]) |
| --- | --- | --- | --- | --- | --- | --- | --- | --- | --- | --- | --- | --- |
| cyclosporin A [CsA] | deleterious |  |  |  |  |  |  |  |  |  |  |  |
| [D-MeAla]^3-[EtVal]^4-CsA [D-[MeAla]^3-[EtVal]^4-CsA] |  | Improvement in myofiber organization and normalization of fiber area distributions | about 1.3 fold | prevents an increase in muscle weight | about 1.2 fold | about 1.3 fold | about 1.3 fold | normalized fiber area heterogeneity; also recorded: partially normalized | normalized fiber area heterogeneity; also recorded: partially normalized | Less small fibers | normalized fiber area heterogeneity; also recorded: partially normalized | reduced fibrosis |
